Laboratory results from US9939427B2, “Method for evaluating the scent performance of perfumes or perfume mixtures” (Symrise AG, priority 2013, dated 2018).
“Also recorded” adds a separate entry of the source.

Tests used:
Type in all cases: cell-based
OR4K2 = biological target: T1, OR4K2 (Homo sapiens, UniProt Q8NGD2); test: Ca-imaging of OR4K2-transfected HEK293 cells; set-up: key to OR4K2 responded to odorant: ▪: 18 olfactory receptors responded to 32 odorants in related with specific anosmia; settings: HEK293 cells, individual odorant 200 μM, significant response p<0.05
T1 construct: specific primers, which amplify the complete open reading frame; expressed in transfected cells; host or cells: HEK293
T1 sequence (Q8NGD2 1-314): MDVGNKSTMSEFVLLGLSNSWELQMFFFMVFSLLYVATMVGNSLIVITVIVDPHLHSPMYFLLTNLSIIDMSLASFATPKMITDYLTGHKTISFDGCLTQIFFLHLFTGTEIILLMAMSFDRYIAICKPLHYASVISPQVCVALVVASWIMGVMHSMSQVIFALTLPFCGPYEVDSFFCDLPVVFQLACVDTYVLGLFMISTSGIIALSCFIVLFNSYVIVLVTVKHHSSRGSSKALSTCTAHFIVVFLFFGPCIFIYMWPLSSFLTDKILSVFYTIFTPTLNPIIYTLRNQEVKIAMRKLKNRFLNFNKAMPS
Procedure: (§1) HEK293 cells were cultivated in Petri dishes (Ø35 mm) as previously described (Benbernou et al. 2007). We grow up HEK293 cells in culture medium containing standard DMEM with 10% heat-inactivated fetal bovine serum, 2 mM L-glutamine, 100 units/ml penicillin, and 100 units/ml streptomycin in a humidified atmosphere (37° C., 5% CO2). After 2-3 days, the transfection process was carried out, whereby the cell culture was 70-80% confluent. The calciumphosphate method was applied to transfect DNA plasmid transiently in HEK293 cells in case of Ca-imaging method.
(§2) Calcium cations and phosphate anions created crystal precipitations coupled with DNA which could invade into the cells through endocytosis. Cells were transiently transfected with plasmid DNA which consists of pCI expression vector and PCR-amplified full-length cDNA of olfactory receptors candidates, and also Gα15, RTP1, Myr-Ric8A, HSC70, and m-Cherry as cofactors. The precipitation could be created after 15-20 min, with dropping the transfection solution on HEK293 cells. Before measuring by Ca-imaging cells were incubated 48-60 hours at 370 C, 5% CO2. Cationic liposome-mediated transfection method was applied to transfect DNA plasmid transiently in HANA3A cells in case of CRE-Luciferase and CRE-SEAP assays.
(§3) Calcium imaging of the transfected HEK293 cells was done by using chambers determinate an inverted microscope (Olympus; IX70) using a 10× objective (CPIanFL N Olympus). Fluorescence emission was determined every 4 s by using a CCD camera (Charge Coupled Device, C9100 Hamamatsu). The capillary tube which was responsible to supply odorants was generated closely above the cells. The columns filled with odorants, DMSO and ATP. Odorants were manually monitored to drop each 4-5 s to transfected cells. Solutions with drop wise form spread on HEK293 cells in 35 mm dishes.
(§4) In experiments, Fura-2 Acetoxymethylester (Fura-2/AM) was applied. The non-polar Fura2/AM is fluorescent but not yet calcium-sensitive. Once diffuses into cell plasma, Fura-2/AM is hydrolyzed to Fura-2 which is calcium-sensitive and functions as Ca2+ chelator. Regardless of the presence of calcium, Fura-2 emits at the wavelength of 510 nm. Once Fura-2 binds to free intracellular Ca2+ in cell plasma, its ratio of excitation at wavelengths of 340 nm and 380 nm is changed and correlated to the amount of intracellular Ca2+. According to this feature, the analysis of 340/380 nm excitation ratio for Fura-2 allows to quantify intracellular calcium levels.
(§5) In preparation for Ca-imaging measurements, transfected HEK293 cells were added 3 it Fura2/AM (3 μM) and incubated 30-45 min at 370 C, 5% CO2. After this step, experiments were carried out in a dark condition (Fura-2 is light-sensitive). After the incubation, medium of cell culture was replaced with 2 ml Ringer's solution.
(§6) Odorants were freshly prepared with DMSO as 1 M stocks solutions. Six mixtures (200 μM each chemical) were applied to cells sequentially (20 s each mixture/30 s Ringer). Those ORs tested with single odorants that had generated a response to odorant mixture group previously. Odorants were prepared in 100-200 μM concentration.
(§7) Ringer's solution was used for washing cells between measuring by two different odorants. Positive response was determined by the timing of the response, the strength of the response (more than twofold higher than the noise amplitude of the baseline), and the shape of the response curve (sharp rise in curve with gradual recovery). […]

OR10A6 = biological target: T2, OR10A6 (Homo sapiens, UniProt Q8NH74); test: Ca-imaging of OR10A6-transfected HEK293 cells; set-up: key to OR10A6 responded to odorant: ▪: 18 olfactory receptors responded to 32 odorants in related with specific anosmia; settings: for OR10A6 responded to odorant: HEK293 cells, individual odorant 200 μM, significant response p<0.05
T2 construct: specific primers, which amplify the complete open reading frame; expressed in transfected cells; host or cells: HEK293
T2 sequence (Q8NH74 1-314): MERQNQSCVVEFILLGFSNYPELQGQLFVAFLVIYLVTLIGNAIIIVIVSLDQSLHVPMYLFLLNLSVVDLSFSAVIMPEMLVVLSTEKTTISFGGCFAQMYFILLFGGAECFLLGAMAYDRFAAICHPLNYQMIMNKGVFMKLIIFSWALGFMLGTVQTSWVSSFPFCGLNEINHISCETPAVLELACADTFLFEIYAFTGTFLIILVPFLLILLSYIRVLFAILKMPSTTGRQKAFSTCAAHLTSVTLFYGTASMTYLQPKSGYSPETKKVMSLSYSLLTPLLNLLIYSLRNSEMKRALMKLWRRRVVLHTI
Procedure: as §1, §2, §3, §4, §5, §6, §7

OR8D2 = biological target: T3, OR8D2 (Homo sapiens, UniProt Q9GZM6); test: Ca-imaging of OR8D2-transfected HEK293 cells; set-up: key to OR8D2 responded to odorant: ▪: 18 olfactory receptors responded to 32 odorants in related with specific anosmia; settings: for Number of cell responses, Experiment (OR8D2): odorant 200 μM, approximately 2000 transfected cells in three times of measuring (Table 4, FIG. 5)
T3 construct: specific primers, which amplify the complete open reading frame; expressed in transfected cells; host or cells: HEK293
T3 sequence (Q9GZM6 1-311): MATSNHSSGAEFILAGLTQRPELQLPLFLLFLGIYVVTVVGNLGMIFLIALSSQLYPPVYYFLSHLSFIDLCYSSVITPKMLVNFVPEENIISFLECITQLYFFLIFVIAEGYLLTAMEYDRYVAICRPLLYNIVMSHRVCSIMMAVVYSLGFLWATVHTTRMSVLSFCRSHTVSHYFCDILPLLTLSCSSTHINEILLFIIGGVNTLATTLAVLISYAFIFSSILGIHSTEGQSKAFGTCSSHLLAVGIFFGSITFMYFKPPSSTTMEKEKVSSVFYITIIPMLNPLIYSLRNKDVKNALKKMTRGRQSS
Procedure: as §1, §2, §3, §4, §5, §6
(§8) Ringer's solution was used for washing cells between measuring by two different odorants. Positive response was determined by the timing of the response, the strength of the response (more than twofold higher than the noise amplitude of the baseline), and the shape of the response curve (sharp rise in curve with gradual recovery). The typical shape of response curves was established by observing responses to repeated stimulation with 200 μM of odorants. After testing with single odorants at 100 μM, stimulating odorants were often retested at 200 μM concentrations. To confirm the result of every receptor that produced a significant response curves, the experiment was repeated for twelve times. Finally, cells were exposed to ATP (0.25 mM) which could activate P2Y receptor channel and induce Ca2+ influx into cells. […]

[1] = system: HEK293 cells transfected with all cofactors and pCI plasmids without ORs; test: Ca-imaging of control HEK293 cells without OR; settings: odorant 200 μM, three times of measuring (Table 4, FIG. 5)
Procedure: as §1, §2, §3, §4, §5, §6, §8

OR8B4 = biological target: T4, OR8B4 (Homo sapiens, UniProt Q96RC9); test: Ca-imaging of OR8B4-transfected HEK293 cells; settings: Ca-imaging, single odorants 200 μM
T4 construct: specific primers, which amplify the complete open reading frame; expressed in transfected cells; host or cells: HEK293
T4 sequence (Q96RC9 1-309): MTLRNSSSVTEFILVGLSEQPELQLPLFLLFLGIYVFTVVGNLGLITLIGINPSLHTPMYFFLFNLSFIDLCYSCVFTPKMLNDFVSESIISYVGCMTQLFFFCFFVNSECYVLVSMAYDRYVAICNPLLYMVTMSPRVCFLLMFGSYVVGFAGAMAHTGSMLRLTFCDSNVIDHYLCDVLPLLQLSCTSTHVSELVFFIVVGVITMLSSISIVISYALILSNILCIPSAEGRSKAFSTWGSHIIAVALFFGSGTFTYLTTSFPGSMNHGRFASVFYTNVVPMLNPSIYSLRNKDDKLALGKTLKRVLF
Procedure: as §1, §2, §3, §4, §5, §6, §8

OR2L8 = biological target: T5, OR2L8 (Homo sapiens, UniProt Q8NGY9); test: Ca-imaging of OR2L8-transfected HEK293 cells; set-up: key to OR2L8 responded to odorant: ▪: 18 olfactory receptors responded to 32 odorants in related with specific anosmia
T5 construct: specific primers, which amplify the complete open reading frame; expressed in transfected cells; host or cells: HEK293
T5 sequence (Q8NGY9 1-312): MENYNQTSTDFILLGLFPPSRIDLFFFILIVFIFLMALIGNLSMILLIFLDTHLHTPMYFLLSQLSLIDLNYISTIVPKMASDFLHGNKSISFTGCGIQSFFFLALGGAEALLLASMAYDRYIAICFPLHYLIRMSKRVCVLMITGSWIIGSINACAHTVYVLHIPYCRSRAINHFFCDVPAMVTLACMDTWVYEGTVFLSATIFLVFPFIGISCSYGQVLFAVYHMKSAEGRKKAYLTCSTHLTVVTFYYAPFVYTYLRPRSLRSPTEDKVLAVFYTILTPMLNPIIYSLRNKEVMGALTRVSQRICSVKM
Procedure: as §1, §2, §3, §4, §5, §6, §8

OR1B1 = biological target: T6, OR1B1 (Homo sapiens, UniProt Q8NGR6); test: Ca-imaging of OR1B1-transfected HEK293 cells; set-up: key to OR1B1 responded to odorant: ▪: 18 olfactory receptors responded to 32 odorants in related with specific anosmia; settings: Ca-imaging
T6 construct: specific primers, which amplify the complete open reading frame; expressed in transfected cells; host or cells: HEK293
T6 sequence (Q8NGR6 1-317): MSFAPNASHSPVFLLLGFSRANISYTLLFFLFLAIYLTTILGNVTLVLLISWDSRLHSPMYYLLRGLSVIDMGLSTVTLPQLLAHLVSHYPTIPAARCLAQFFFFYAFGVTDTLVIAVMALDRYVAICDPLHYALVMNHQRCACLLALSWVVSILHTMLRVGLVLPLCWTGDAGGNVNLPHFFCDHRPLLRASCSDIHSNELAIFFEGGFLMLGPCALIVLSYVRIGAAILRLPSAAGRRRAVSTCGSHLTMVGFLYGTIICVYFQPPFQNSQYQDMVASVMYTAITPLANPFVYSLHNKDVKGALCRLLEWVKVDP
Procedure: as §1, §2, §3, §4, §5, §6, §8

[2] = Ca-imaging, HEK293 cells, individual odorant 200 μM, significant response p<0.05
[3] = Ca-imaging, single odorants 200 μM

`O=Cc1ccccc1` [Banzaldehyde, Benzaldehyde] was tested, and the “OR4K2 responded to odorant” value (OR4K2) was “▪”.

`OC/C=C/c1ccccc1` [Cinamyl alcohol, Cinamylalcohol] was tested, and the “OR10A6 responded to odorant” value (OR10A6) was “▪”.

With `CC(C)(CO)Cc1ccccc1` [Muguet alcohol, Muguetalcohol] the “OR10A6 responded to odorant” value (OR10A6) was “▪”, the “Response of OR10A6 to odorant, in words” value (OR10A6; single odorants 200 μM) was “detected” and the “OR8D2 responded to odorant” value (OR8D2; [2]) was “▪”. For the same compound, the “Response of OR8D2 to odorant, in words” value (OR8D2; [3]) was “significantly activated; also recorded: detected”, the “Number of cell responses, Experiment (OR8D2)” value (OR8D2) was 21 and the “Number of cell responses, Control” value [1] was 0. For the same compound, the “Response of OR8B4 to odorant, in words” value (OR8B4) was “activated”.

For `CCCCCCCCO` [Octanol], the “Number of cell responses, Experiment (OR8D2)” value (OR8D2) was 9 and the “Number of cell responses, Control” value [1] was 0.

`CCCC(O)CCC1C(C)CCCC1(C)C` (stereo not drawn) [Timbrol, Timberol] was tested, and the “Number of cell responses, Control” value [1] was 1, the “OR2L8 responded to odorant” value (OR2L8; [2]) was “▪” and the “Response of OR2L8 to odorant, in words” value (OR2L8; [3]) was “Ca2+ concentration increased”. The “Number of cell responses, Experiment (OR2L8)” value (OR2L8; odorant 200 μM, approximately 2000 transfected cells in three times of measuring (Table 4, FIG. 5)) was 10.

For `Cc1ccc2c(c1)OCC(=O)CO2` [calone, Calone], the “OR1B1 responded to odorant” value (OR1B1; HEK293 cells, individual odorant 200 μM, significant response p<0.05) was “▪”, the “Response of OR1B1 to odorant, in words” value (OR1B1; single odorants 200 μM) was “significantly (P<0.05) activated” and the “Number of cell responses, Control” value [1] was 0.
